Experimental data as given in patent US5780431A, “Pharmaceutical formulations of corticotropin releasing factor having improved stability in liquid form” (Neurobiological Technologies, Inc., priority 1996, dated 1998).
Values after ≈ are worked out from the molar mass of the structure shown. Values joined by “and” are separate entries in the source; they are usually repeats but may differ in a detail not shown here. Equal values may be shown once. Read-outs that look alike come from different tables or passages of the source.

Legend:
[1] = Solubility of CRF in various buffer solutions; assay type: physicochemical; conditions: for solubility: read-out: CRF solubility (gross weight)
Protocol: (§1) In an effort to develop liquid formulations of CRF useful for commercial pharmaceutical purposes, experiments designed to measure the solubility of CRF in a variety of different buffer solutions were carried out. Specifically, CRF was added in increasing amounts to a variety of different buffer solutions at various different concentrations and pH's, either in the presence or absence of other excipient additives and the solubility of the CRF product was determined. Table 1 summarizes the results of these experiments measuring the solubility of CRF in various phosphate, citrate and acetate buffers, either in the presence or absence of various excipients such as NaCl and mannitol. CRF solubility is expressed in gross weight of CRF in mg/ml of solution.

[2] = Solubility of CRF in various non-volatile buffer solutions; assay type: physicochemical
Protocol: as §1
Next, because it is known that certain buffers may be volatilized when lyophilized, further experiments were conducted as described above to examine the solubility of CRF in various other non-volatile buffer solutions.

CC[C@H](C)[C@H](NC(=O)[C@@H](NC(=O)[C@H](CCC(=O)O)NC(=O)[C@H](CCSC)NC(=O)[C@H](CC(C)C)NC(=O)[C@H](CCCCN)NC(=O)[C@H](CCCNC(=N)N)NC(=O)[C@H](CC(N)=O)NC(=O)[C@H](CO)NC(=O)[C@H](Cc1c[nH]cn1)NC(=O)[C@H](C)NC(=O)[C@H](CCC(N)=O)NC(=O)[C@H](CCC(N)=O)NC(=O)[C@H](C)NC(=O)[C@H](CC(C)C)NC(=O)[C@H](CCC(N)=O)NC(=O)[C@H](CCC(=O)O)NC(=O)[C@H](C)NC(=O)[C@H](CCCNC(=N)N)NC(=O)[C@H](C)NC(=O)[C@H](CCSC)NC(=O)[C@H](CCC(=O)O)NC(=O)[C@H](CC(C)C)NC(=O)[C@@H](NC(=O)[C@H](CCC(=O)O)NC(=O)[C@H](CCCNC(=N)N)NC(=O)[C@H](CC(C)C)NC(=O)[C@H](CC(C)C)NC(=O)[C@H](Cc1c[nH]cn1)NC(=O)[C@H](Cc1ccccc1)NC(=O)[C@@H](NC(=O)[C@H](CC(C)C)NC(=O)[C@H](CC(=O)O)NC(=O)[C@H](CC(C)C)NC(=O)[C@H](CO)NC(=O)[C@@H](NC(=O)[C@@H]1CCCN1C(=O)[C@@H]1CCCN1C(=O)[C@H](CCC(=O)O)NC(=O)[C@H](CCC(=O)O)NC(=O)[C@@H](N)CO)[C@@H](C)CC)[C@@H](C)O)C(C)C)[C@@H](C)CC)C(N)=O [CRF]
CRF solubility ([1]; acetate buffer between pH 4 and 5 without added NaCl): very soluble
CRF solubility ([1]; citrate buffer between pH 4 and 6): < 200 µg/mL
solubility ([1]; citrate buffer, pH 4, aqueous buffer, pH 4.0, 25 mM Citrate, 150 mM NaCl): 20 µg/mL (≈ 4.2 µM)
solubility ([1]; citrate buffer, pH 4, aqueous buffer, pH 4.0, 25 mM Citrate): 40 µg/mL (≈ 8.41 µM)
solubility ([1]; citrate buffer, pH 5.1, aqueous buffer, pH 5.1, 25 mM Citrate, 150 mM NaCl): 10 µg/mL (≈ 2.1 µM)
solubility ([1]; citrate buffer, pH 5.1, aqueous buffer, pH 5.1, 25 mM Citrate): 20 µg/mL (≈ 4.2 µM)
CRF solubility (gross weight) ([1]; pH 2.0, 10 mM PO4, 138 mM NaCl): 50000 µg/mL
CRF solubility (gross weight) ([1]; pH 4.08, 5 mM Citrate): 200 µg/mL
CRF solubility (gross weight) ([1]; pH 4.08, 5 mM Citrate, 150 mM NaCl): 160 µg/mL
CRF solubility (gross weight) ([1]; pH 4.2, 5 mM HOAC, 150 mM NaCl): 1170 µg/mL
CRF solubility (gross weight) ([1]; pH 4.2, 25 mM HOAc): 29000 µg/mL
CRF solubility (gross weight) ([1]; pH 4.26, 20 mM HOAc, 5% mannitol): 14500 µg/mL
CRF solubility (gross weight) ([1]; pH 4.34, 20 mM HOAc, 5% mannitol): 11200 µg/mL
CRF solubility (gross weight) ([1]; pH 4.4, 5 mM HOAC): 33000 µg/mL
CRF solubility (gross weight) ([1]; pH 4.45, 20 mM HOAc, 5% mannitol): 13800 µg/mL
CRF solubility (gross weight) ([1]; pH 4.49, 25 mM HOAc): 5340 µg/mL
CRF solubility (gross weight) ([1]; pH 4.49, 25 mM HOAc, 150 mM NaCl): 280 µg/mL
CRF solubility (gross weight) ([1]; pH 4.52, 20 mM HOAc, 5% mannitol): 12500 µg/mL
CRF solubility (gross weight) ([1]; pH 4.6, 5 mM HOAC, 5% mannitol): 2200 µg/mL
CRF solubility (gross weight) ([1]; pH 4.7, 5 mM HOAC, 1% mannitol): 1960 µg/mL
CRF solubility (gross weight) ([1]; pH 4.72, 5 mM HOAC, 1% Tween): 1970 µg/mL
CRF solubility (gross weight) ([1]; pH 4.73, 20 mM HOAc, 5% mannitol): 1530 µg/mL
CRF solubility (gross weight) ([1]; pH 4.81, 5 mM HOAC): 1130 µg/mL
CRF solubility (gross weight) ([1]; pH 4.9, 25 mM HOAc): 370 µg/mL
CRF solubility (gross weight) ([1]; pH 4.9, 25 mM HOAc, 150 mM NaCl): 140 µg/mL
CRF solubility (gross weight) ([1]; pH 4.92, 5 mM Citrate): 30 µg/mL
CRF solubility (gross weight) ([1]; pH 4.92, 5 mM Citrate, 150 mM NaCl): 10 µg/mL
CRF solubility (gross weight) ([1]; pH 4.94, 20 mM HOAc, 5% mannitol): 70 µg/mL
CRF solubility (gross weight) ([1]; pH 5.0, 5 mM HOAC): 130 µg/mL
CRF solubility (gross weight) ([1]; pH 5.23, 20 mM HOAc, 5% mannitol): 40 µg/mL
CRF solubility (gross weight) ([1]; pH 5.84, 5 mM Citrate): 40 µg/mL
CRF solubility (gross weight) ([1]; pH 5.84, 5 mM Citrate, 150 mM NaCl): 20 µg/mL
CRF solubility (gross weight) ([1]; pH 6.0, 5 mM HOAC): 30 µg/mL
CRF solubility (gross weight) ([1]; pH 6.1, 25 mM Citrate): 100 µg/mL
CRF solubility (gross weight) ([1]; pH 6.1, 25 mM Citrate, 150 mM NaCl): 70 µg/mL
CRF solubility (gross weight) ([1]; pH 6.24, 25 mM HOAc): 90 µg/mL
CRF solubility (gross weight) ([1]; pH 6.24, 25 mM HOAc, 150 mM NaCl): 50 µg/mL
CRF solubility (gross weight) ([1]; pH 7.1, 10 mM PO4, 138 mM NaCl): 480 µg/mL and 840 µg/mL
CRF solubility ([1]; phosphate buffer between pH 2 and 3.6): very soluble
solubility ([1]; phosphate buffer, pH 3.6, aqueous buffer, pH 3.6, 10 mM PO4, 138 mM NaCl): 2640 µg/mL (≈ 555 µM)
solubility ([1]; phosphate buffer, pH 4.2, aqueous buffer, pH 4.2, 10 mM PO4, 138 mM NaCl): 290 µg/mL (≈ 61 µM)
solubility ([1]; phosphate buffer, pH 4.5, aqueous buffer, pH 4.5, 10 mM PO4, 138 mM NaCl): 620 µg/mL (≈ 130 µM)
solubility ([1]; phosphate buffer, pH 5.6, aqueous buffer, pH 5.6, 10 mM PO4, 138 mM NaCl): 310 µg/mL (≈ 65.2 µM)
solubility ([1]; phosphate buffer, pH 6.02, aqueous buffer, pH 6.02, 5 mM PO4): 80 µg/mL (≈ 16.8 µM)
solubility ([1]; phosphate buffer, pH 6.7, aqueous buffer, pH 6.7, 10 mM PO4, 138 mM NaCl): 520 µg/mL (≈ 109 µM)
solubility ([1]; phosphate buffer, pH 6.96, aqueous buffer, pH 6.96, 5 mM PO4): 470 µg/mL (≈ 98.8 µM)
solubility ([1]; phosphate buffer, pH 7.32, aqueous buffer, pH 7.32, 20 mM PO4): 1460 µg/mL (≈ 307 µM)
solubility ([1]; phosphate buffer, pH 7.7, aqueous buffer, pH 7.7, 5 mM PO4): 460 µg/mL (≈ 96.7 µM)
CRF solubility ([2]; 10 mM Phosphate, pH 7.3): 3.0 net mg/ml
CRF solubility ([2]; 10 mM Phosphate, pH 7.3 + 25 mM ascorbate): 1.2 net mg/ml
CRF solubility ([2]; 10 mM Phosphate, pH 7.3 + 0.25% arginine): 2.0 net mg/ml
CRF solubility ([2]; 10 mM Phosphate, pH 7.3 + 0.25% glycine): 2.2 net mg/ml
CRF solubility ([2]; 25 mM Ascorbic, pH 4.0): 4.5 net mg/ml
CRF solubility ([2]; 25 mM Lactic, pH 4.0): 1.9 net mg/ml
CRF solubility ([2]; 25 mM Succinic, pH 4.0): 4.2 net mg/ml
CRF solubility ([2]; 25 mM Tartaric, pH 4.0): 0.2 net mg/ml
CRF solubility ([2]; ascorbic, lactic, succinic and phosphate buffers tested): extremely soluble
